Format in all cases: in vivo
For one data set, the system named is Solanum nigrum L. Put plainly: 14C-glyphosate foliar uptake by scintillation measurement. Particulars: 14C-glyphosate-IPA 20 mM (aq), adjuvant 0.25%. As to the method:
Determination of the foliar uptake of glyphosate with addition of the copolymers described
^14C-Glyphosate Experiment
^14C-glyphosate-IPA at a concentration of 20 mM (aq) (corresponds to 665 g of ae/ha at a spray volume of 200 l/ha) was treated with 0.25% of the copolymers described. Using this mixture, the foliar uptake into the genus Solanum nigrum L. was determined by means of scintillation measurement. The effect of the copolymer on the uptake of the active ingredient via the leaf surface (foliar uptake) is described in the table which follows: […]

A further data set deals with common chickweed (STEME). Put plainly: Nicosulforon experiment, plant fresh weight. Particulars: nicosulforon 200 g of ai/ha, adjuvant 0.25%, 14 DAT; untreated = 100. As to the method: (§1) Nicosulforon was applied as an aqueous solution with a concentration of 200 g of ai/ha. The adjuvants were added to the application solution at a concentration of 0.25%. The mixture was applied to plants of the genus velvetleaf (ABUTH), common lambsquarter (CHEAL) and common chickweed (STEME). The efficacy was determined by weighing the plant weight (fresh weight in g) 14 days post-application (14 DAT).

For data set [1], the system named is common lambsquarter (CHEAL). The experiment in a line: Nicosulforon experiment, plant fresh weight. The following applies: nicosulforon 200 g of ai/ha, adjuvant 0.25%, 14 DAT; untreated = 100. As to the method: as §1
In another data set the test system is velvetleaf (ABUTH). The experiment in a line: Nicosulforon experiment, plant fresh weight. The following applies: nicosulforon 200 g of ai/ha, adjuvant 0.25%, 14 DAT; untreated = 100. As to the method:
as §1

The subject of data set [2] is common lambsquarters (CHEAL). Put plainly: Bentazone experiment, photosynthetic activity by fluorescence measurement (Fpc). The following applies: sodium salt of bentazone 60 g ai/ha, adjuvant 0.25%, 1 DAT; Fpc drops from 100 to 0 with destruction of the plant. As to the method: (§2) The sodium salt of bentazone was applied as an aqueous solution with a concentration of 480 g/l. The application rate was 60 g of ai/ha. The mixture was applied to plants of the genus common lambsquarters (CHEAL) and wild buckwheat (POLCO). The adjuvants were added to the application solution at a concentration of 0.25%. The activity was determined by means of fluorescence measurement, where the factor Fpc is a measure of the photosynthetic activity. The destruction of the plant is associated with a drop in the Fpc value, starting from 100, down to 0.

Another data set relates to wild buckwheat (POLCO). Described as above. Particulars: sodium salt of bentazone 60 g ai/ha, adjuvant 0.25%, 1 DAT; Fpc drops from 100 to 0 with destruction of the plant. As to the method:
as §2

Structures can show the parent of a compound that is named as a salt.

In the case of `O=C(O)CNCP(=O)(O)O` [glyphosate, N-phosphonomethylglycine], the “Uptake (% of the amount of glyphosate applied)” value in the data set on Solanum nigrum L. was 48 % of the amount of glyphosate applied.
Turning to `COc1cc(OC)nc(NC(=O)NS(=O)(=O)c2ncccc2C(=O)N(C)C)n1` [nicosulforon], the “FW (fresh weight) STEME” value in the data set with common chickweed (STEME) is on record as 63 g. For the same molecule, in data set [1], the “FW (fresh weight) CHEAL” value stood at 88 g. For the same molecule, the “FW (fresh weight) ABUTH” value in the data set on velvetleaf (ABUTH) was 90 g.
Regarding `CC(C)N1C(=O)c2ccccc2NS1(=O)=O` [sodium salt of bentazone], the “Fluorescence Fpc CHEAL” value in data set [2] is listed as 56. The “Florescence Fpc POLCO” value in the data set with wild buckwheat (POLCO) turned out to be 46.

(Values after patent publication US20060264330A1, “Agricultural agents containing copolymers” (priority 2003, published 2006).)
